Where two headings read alike, the source gives them in different places.
Target: T1, APOL1 G1 (Homo sapiens, UniProt O14791, I384M/S342G)
T1 sequence (O14791 28-398 S342G/I384M): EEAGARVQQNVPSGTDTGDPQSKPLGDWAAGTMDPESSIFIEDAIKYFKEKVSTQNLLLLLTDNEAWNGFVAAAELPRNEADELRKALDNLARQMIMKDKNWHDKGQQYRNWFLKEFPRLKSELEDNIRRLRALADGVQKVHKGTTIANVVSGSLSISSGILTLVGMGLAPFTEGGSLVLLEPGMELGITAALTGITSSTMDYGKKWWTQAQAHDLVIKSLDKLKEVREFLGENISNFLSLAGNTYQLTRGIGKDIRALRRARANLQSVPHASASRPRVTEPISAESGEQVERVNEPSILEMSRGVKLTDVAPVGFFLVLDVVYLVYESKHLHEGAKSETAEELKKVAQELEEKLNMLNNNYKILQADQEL
Experiment: MultiTox-Fluor Multiplex Cytotoxicity Assay, tet-inducible APOL1 G1 T-REx-HEK293 cells
Assay type: cell-based
Set-up: expressed in transfected cells; host or cells: T-REx HEK293, clone G1 DC3.25 (pAAVS1-Puro-APOL1 G1)
Conditions: for IC90: read-out: Multi-Tox Assay IC90; for IC50: IP50 = IC50 for cell proliferation; for Emax: read-out: Multi-Tox Assay Max Activity (%)
Procedure, shortened: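 T-REx-HEK293 cells carrying tet-inducible APOL1 G1 induced with 50 ng/mL tet alongside compound (top 10 µM, 10-point 3-fold, duplicate) for 24 h at 37 °C. MultiTox-Fluor dead/live protease fluorescence ratio read after 30 min; normalized to no-tet (100% viability) and tet-treated (0%) controls, then curve-fitted.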

[1] = Multi-Tox Assay, APOL1 variant (G0/G1/G2) not stated in Table 46
[2] = Multi-Tox Assay, APOL1 variant not stated in Table 46
[3] = HEK293, Multi-Tox Assay, APOL1 variant (G0/G1/G2) of the HEK293 cells not given
[4] = Multi-Tox Assay, APOL1 variant not given

| Structure (SMILES) | IC90 [3] [nM] | Emax [4] [%] | Multi-Tox Assay Max Activity (%) [4] [%] | other results |
| --- | --- | --- | --- | --- |
| C[C@H]1C[C@@]2(C[C@@H](c3cn(CC(C)(C)O)nn3)N1)OCC(F)(F)c1cc(Cl)sc12 [Compound 364] | – | – | – | IC90 [1]: > 500 nM; Multi-Tox Assay Max Activity (%) [2]: 95.0%; IC50 [2]: 50 to 500 nM |
| CC(=O)Nc1ccc(C2CC3(CC(C)N2)OCCc2cc(Cl)sc23)cn1 (stereo not shown) [Compound 37] | < 50 | 99.7 | – | – |
| C[C@@H]1CC2(C[C@H](C)N1)OCCc1cc(C3CCCCC3)sc12 (single isomer, unassigned) [Compound 202] | > 500 | 94.7 | – | – |
| C[C@H]1C[C@@]2(C[C@@H](c3cccc(=O)[nH]3)N1)OCCc1cc(Cl)sc12 (racemic) [Compound 151] | > 500 | – | 96.2 | – |
| C[C@H]1C[C@@]2(C[C@@H](c3c[nH]c(C4CC4)n3)N1)OCCc1cc(Cl)sc12 (racemic) [Compound 130] | 50 to 500 | – | – | – |
| CC(C)N1CC(Cn2cc([C@@H]3C[C@]4(C[C@H](C)N3)OC[C@@H](O)c3cc(Cl)sc34)nn2)CC1=O (stereo partly shown) [Compound 287] | 50 to 500 | – | 96.0 | – |
| COc1ccc(C2CC3(CC(C)N2)OCCc2cc(Cl)sc23)nn1 (mixture of isomers) [Compound 76] | < 50 | 99.3 | – | – |
| C[C@H]1C[C@@]2(C[C@@H](c3cn(Cc4cocn4)nn3)N1)OCC(F)(F)c1cc(Cl)sc12 [Compound 331] | 50 to 500 | – | 98.0 | – |
| CC1CC2(CC(c3cncnc3)N1)OCCc1cc(Cl)sc12 (stereo not shown) [Compound 45] | < 50 | – | 100.0 | – |
| CC(=O)Nc1cccc([C@@H]2C[C@]3(C[C@H](C)N2)OCCc2cc(Cl)sc23)c1 (racemic) [Compound 113] | 50 to 500 | – | 100.0 | – |
| Cc1cc(C)nc(CCn2cc([C@@H]3C[C@]4(C[C@H](C)N3)OC[C@@H](O)c3cc(Cl)sc34)nn2)c1 [Compound 235] | 50 to 500 | – | 100.0 | – |
| C[C@H]1C[C@@]2(C[C@@H](CC3CCOCC3)N1)OCCc1cc(Cl)sc12 [Compound 219, (2S,6R)-2-chloro-2'-methyl-6'-(tetrahydropyran-4-ylmethyl)spiro[4,5-dihydrothieno[2,3-c]pyran-7,4'-piperidine]] | > 500 | 88.7 | – | – |
| Cc1cc([C@@H]2C[C@]3(C[C@H](C)N2)OCCc2cc(Cl)sc23)[nH]n1 (racemic) [Compound 73] | < 50 | 99.8 | – | – |
| CC1CC2(CC(CO)N1)OCCc1cc(Cl)sc12 (mixture of isomers) [Compound 210, (2-chloro-6'-methyl-spiro[4,5-dihydrothieno[2,3-c]pyran-7,4'-piperidine]-2'-yl)methanol] | > 500 | 92.2 | – | – |
| C[C@H]1C[C@@]2(C[C@@H](c3cn(C)nn3)N1)OCC(F)(F)c1cc(Cl)sc12 [Compound 183, (2'S, 6'S, 7S)-2-chloro-4,4-difluoro-2'-methyl-6'-(1-methyltriazol-4-yl)spiro[5H-thieno[2,3-c]pyran-7,4'-piperidine]] | < 50 | 99.5 | – | – |
| CC1CC2(CC(c3ccc4c(c3)OCC(=O)N4)N1)OCCc1cc(Cl)sc12 (stereo not shown) [Compound 39] | < 50 | 99.7 | – | – |
| C[C@H]1C[C@@]2(C[C@@H](c3cn(Cc4cccnn4)nn3)N1)OCC(F)(F)c1cc(Cl)sc12 [Compound 321] | 50 to 500 | – | – | – |
| CC1CC2(CC(c3cnn(-c4cccnc4)c3)N1)OCCc1cc(Cl)sc12 (stereo not shown) [Compound 40] | < 50 | – | 100.0 | – |
| C[C@H]1C[C@@]2(C[C@@H](c3cn(Cc4ccc(S(C)(=O)=O)cc4)nn3)N1)OC[C@@H](O)c1cc(Cl)sc12 [Compound 238] | 50 to 500 | – | 100 | – |
| C[C@H]1C[C@@]2(C[C@@H](c3cn(CC4(O)CC4)nn3)N1)OC[C@@H](O)c1cc(Cl)sc12 [Compound 233] | 50 to 500 | – | 100.0 | – |
| C[C@H]1C[C@@]2(C[C@@H](c3cn(C)c(=O)n(C)c3=O)N1)OCCc1cc(Cl)sc12 (racemic) [Compound 124] | 50 to 500 | – | 99.3 | – |

| Structure (SMILES) | IC90 [3] [nM] | Emax [4] [%] | Multi-Tox Assay Max Activity (%) [4] [%] | other results |
| --- | --- | --- | --- | --- |
| CC1CC2(CC(c3cc(F)cc(C#N)c3)N1)OCCc1cc(Cl)sc12 (stereo not shown) [Compound 33] | < 50 | – | 98.7 | – |
| CC(=O)NC1([C@@H]2C[C@]3(C[C@H](C)N2)OCCc2cc(Cl)sc23)CC1 [Compound 379, N-[1-[(2'S,6'S,7S)-2-chloro-6'-methyl-spiro[4,5-dihydrothieno[2,3-c]pyran-7,4'-piperidine]-2'-yl]cyclopropyl]acetamide] | – | – | – | IC90 [1]: > 500 nM; Multi-Tox Assay Max Activity (%) [2]: 94.0% |
| C[C@H]1C[C@@]2(C[C@@H](c3cn(C)nn3)N1)OCC(O)(C(F)F)c1cc(Cl)sc12 (single isomer, unassigned) [Compound 184] | 50 to 500 | 99.3 | – | – |
| Cc1nc[nH]c1[C@@H]1C[C@]2(C[C@H](C)N1)OCCc1cc(Cl)sc12 (racemic) [Compound 161] | > 500 | – | 92.4 | – |
| Cc1nn(C)c2ncc(C3CC4(CC(C)N3)OCCc3cc(Cl)sc34)cc12 (stereo not shown) [Compound 42] | < 50 | – | 99.7 | – |
| C[C@H]1C[C@@]2(C[C@@H](c3cnn4ccccc34)N1)OCCc1cc(Cl)sc12 (racemic) [Compound 117] | 50 to 500 | – | – | – |
| C[C@H]1CC2(CC(c3cn(C)cn3)N1)OCC(O)c1cc(Cl)sc12 (single isomer, unassigned) [Compound 178] | < 50 | 99.7 | – | – |
| Cc1ncc([C@@H]2C[C@]3(C[C@H](C)N2)OCCc2cc(Cl)sc23)o1 (racemic) [Compound 94] | < 50 | 100 | – | – |
| C[C@H]1C[C@@]2(C[C@@H](c3cnc(N)nc3)N1)OCCc1cc(Cl)sc12 (racemic) [Compound 57] | < 50 | – | 99.7 | – |
| C[C@H]1C[C@@]2(C[C@@H](c3cc(C4CC4)no3)N1)OCCc1cc(Cl)sc12 (racemic) [Compound 87] | < 50 | 99.3 | – | – |
| C[C@@H]1CC2(C[C@H](C)N1)OCCc1cc(C(F)(F)F)sc12 (single isomer, unassigned) [Compound 207] | 50 to 500 | 100 | – | – |
| C[C@H]1C[C@@]2(C[C@@H](c3cn(Cc4ccc5nc(O)[nH]c5c4)nn3)N1)OCC(F)(F)c1cc(Cl)sc12 [Compound 366] | – | – | – | IC90 [1]: > 500 nM; Multi-Tox Assay Max Activity (%) [2]: 95.0%; IC50 [2]: 50 to 500 nM |
| COc1cc(F)cc(Cn2cc([C@@H]3C[C@]4(C[C@H](C)N3)OC[C@@H](O)c3cc(Cl)sc34)nn2)c1 [Compound 293] | < 50 | – | 100.0 | – |
| C[C@H]1C[C@@]2(C[C@@H](c3cn(Cc4ccc(S(C)(=O)=O)cc4)nn3)N1)OCC(F)(F)c1cc(Cl)sc12 [Compound 355] | 50 to 500 | – | 98.0 | – |
| C[C@H]1C[C@@]2(C[C@@H](c3cn(Cc4cccc5c4OCCO5)nn3)N1)OC[C@@H](O)c1cc(Cl)sc12 [Compound 268] | 50 to 500 | – | – | – |
| Cc1cc(Cn2cc([C@@H]3C[C@]4(C[C@H](C)N3)OCC(F)(F)c3cc(Cl)sc34)nn2)ccn1 [Compound 336] | 50 to 500 | – | – | – |
| Cc1ccccc1C(O)Cn1cc([C@@H]2C[C@]3(C[C@H](C)N2)OC[C@@H](O)c2cc(Cl)sc23)nn1 (stereo partly shown) [Compound 261] | 50 to 500 | – | 100.0 | – |
| C[C@H]1C[C@@]2(C[C@@H](c3cnc(N(C)C)nc3)N1)OCCc1cc(Cl)sc12 (racemic) [Compound 75] | < 50 | 100 | – | – |
| Cc1cc(C)nc(CCn2cc([C@@H]3C[C@]4(C[C@H](C)N3)OCC(F)(F)c3cc(Cl)sc34)nn2)c1 [Compound 351] | 50 to 500 | – | 98.0 | – |
| CC1COC2(C[C@@H](c3cn(C)nn3)N[C@@H](C)C2)c2cc(C(F)(F)F)sc21 (stereo partly shown) [Compound 14] | 50 to 500 | – | 99.3 | – |

From patent publication EP4810040A2, “INHIBITORS OF APOL1 AND METHODS OF USING SAME” (priority 2020, dated 2022)
